According to patent publication US20240148678A1, “SUSTAINED RELEASE INJECTABLE THERAPEUTIC FORMULATIONS USING APROTIC POLAR SOLVENTS” (Xeris Pharmaceuticals, Inc., priority 2022, published 2024):
Where “and” joins values, the source holds several entries; their conditions need not be identical. Equal entries are not always repeated.

Legend:
[1] = Storage stability of levothyroxine in DMSO formulations; type: physicochemical; conditions: 5 mg/mL in DMSO without ionization stabilizing excipient; even in refrigeration
Protocol: These formulation studies are described in detail in U.S. Appl. No. 63/380,090, entitled “Stable Levothyroxine Formulations in Aprotic Polar Solvents,” filed on even day herewith, which is incorporated herein by reference in its entirety. […] The overall moisture content of the formulation was ˜5% when prepared using 1.0 N H2SO4. The moisture content of this formulation was due almost entirely to the added sulfuric acid (with a minor contribution from the trehalose dihydrate), which at 26 mM (from a 1.0 N (0.5 M) stock solution) results in a moisture content ˜5% (w/w). When prepared using concentrated acid (e.g., 10 N), the overall moisture content of the formulation could be reduced to about ˜1% without any significant impact on storage stability. Other exemplary formulations were prepared at a concentration of 5 mg/mL levothyroxine in DMSO that had been first acidified with about 13-15 mM sulfuric acid. These formulations were then used in levothyroxine pharmacokinetic pre-clinical studies using laboratory animals.

[2] = cited from earlier work

SMILES | stability when solubilized directly in DMSO [1] | solubility in DMSO ([2]; DMSO) | solubility in aqueous/physiological environments ([2]; aqueous/physiological)
N[C@@H](Cc1cc(I)c(Oc2cc(I)c(O)c(I)c2)c(I)c1)C(=O)O [levothyroxine] | discolor and form degradation products within one day of storage |  | 
CCOc1ccccc1OCCN[C@H](C)Cc1ccc(OC)c(S(N)(=O)=O)c1 [Tamsulosin, tamsulosin] |  | 100 mM and > 40 mg/ml | ~10 mM and 4 mg/ml
